Results taken from PubChem BioAssay AID248 (DTP/NCI, 2004).
Toxic doses and inconclusive results are not listed. Rule as the data show it: active = T/C of 150% or more; inactive = T/C below 125%.

Test system: L1210 leukemia ip in BDF1 mice, survival T/C
Assay: NCI In Vivo Anticancer Drug Screen. Data for tumor model L1210 Leukemia (intraperitoneal) in B6D2F1 (BDF1) mice
Conditions: endpoint: mean survival time, higher = longer survival
Procedure, shortened: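 Transplanted-tumor mice were given test agent; controls received vehicle only. Survival readings from the two groups were divided (treated over control).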

[1] = dose: 50.0 mg/kg/injection, schedule: Q01DX009 (ip), vehicle: saline with Tween-80
[2] = dose: 100.0 mg/kg/injection, schedule: Q01DX009 (ip), vehicle: saline with Tween-80
[3] = dose: 200.0 mg/kg/injection, schedule: Q01DX009 (ip), vehicle: saline with Tween-80
[4] = dose: 100.0 mg/kg/injection, schedule: Q04DX003 (ip), vehicle: saline with Tween-80
[5] = dose: 200.0 mg/kg/injection, schedule: Q04DX003 (ip), vehicle: saline with Tween-80
[6] = dose: 400.0 mg/kg/injection, schedule: Q04DX003 (ip), vehicle: saline with Tween-80
[7] = dose: 100.0 mg/kg/injection, schedule: Q01DX001 (ip), vehicle: Klucel (hydroxypropylcellulose) (HPC)
[8] = dose: 200.0 mg/kg/injection, schedule: Q01DX001 (ip), vehicle: Klucel (hydroxypropylcellulose) (HPC)
[9] = dose: 400.0 mg/kg/injection, schedule: Q01DX001 (ip), vehicle: Klucel (hydroxypropylcellulose) (HPC)
[10] = dose: 100.0 mg/kg/injection, schedule: Q01DX001 (ip), vehicle: carboxymethylcellulose (CMC)
[11] = dose: 200.0 mg/kg/injection, schedule: Q01DX001 (ip), vehicle: carboxymethylcellulose (CMC)
[12] = dose: 400.0 mg/kg/injection, schedule: Q01DX001 (ip), vehicle: carboxymethylcellulose (CMC)

Measured: T/C

CCCCC(CC)C1OCCS1 (stereo unspecified)
inactive: dose: 100.0 mg/kg/injection, schedule: Q01DX009 (ip), vehicle: saline 96 % of control | dose: 100.0 mg/kg/injection, schedule: Q04DX002 (ip), vehicle: saline 96 % of control | dose: 200.0 mg/kg/injection, schedule: Q01DX009 (ip), vehicle: saline 107 % of control | dose: 200.0 mg/kg/injection, schedule: Q04DX002 (ip), vehicle: saline 92 % of control | dose: 400.0 mg/kg/injection, schedule: Q01DX009 (ip), vehicle: saline 104 % of control | dose: 400.0 mg/kg/injection, schedule: Q04DX002 (ip), vehicle: saline 99 % of control

c1ccc(-c2[nH]c(-c3ccccc3)c(-c3ccccc3)c2-c2ccccc2)cc1
inactive: [1] 102 % of control | [2] 95 % of control | [3] 95 % of control

O=[N+]([O-])c1ccc(CCc2ccc([N+](=O)[O-])cc2)cc1
inactive: dose: 50.0 mg/kg/injection, schedule: Q01DX001 (ip), vehicle: other 91 % of control | dose: 100.0 mg/kg/injection, schedule: Q01DX001 (ip), vehicle: other 95 % of control | dose: 200.0 mg/kg/injection, schedule: Q01DX001 (ip), vehicle: other 97 % of control | dose: 400.0 mg/kg/injection, schedule: Q01DX001 (ip), vehicle: other 95 % of control

CS(=O)(=O)OCCN(Cc1ccc(OS(C)(=O)=O)cc1)S(C)(=O)=O
inactive: [2] 91 % of control | [4] 109 % of control | [3] 93 % of control | [5] 95 % of control | [6] 109 % of control

O=C(Nc1cccc2ccccc12)Oc1ccc(Cl)cc1Cc1ccccc1
inactive: dose: 12.5 mg/kg/injection, schedule: Q04DX002 (ip), vehicle: Klucel (hydroxypropylcellulose) (HPC) 123 % of control | dose: 25.0 mg/kg/injection, schedule: Q04DX002 (ip), vehicle: Klucel (hydroxypropylcellulose) (HPC) 105 % of control | dose: 50.0 mg/kg/injection, schedule: Q04DX002 (ip), vehicle: Klucel (hydroxypropylcellulose) (HPC) 94 % of control | dose: 100.0 mg/kg/injection, schedule: Q04DX002 (ip), vehicle: Klucel (hydroxypropylcellulose) (HPC) 92 % of control | dose: 200.0 mg/kg/injection, schedule: Q04DX002 (ip), vehicle: Klucel (hydroxypropylcellulose) (HPC) 89 % of control

CCOC(=O)CNC(=O)Nc1ccc(OC)cc1
inactive: [2] 100 % of control | [3] 93 % of control | dose: 400.0 mg/kg/injection, schedule: Q01DX009 (ip), vehicle: saline with Tween-80 100 % of control

Fc1ccc(-c2n[nH]c3c2CCCc2ccccc2-3)cc1
inactive: [4] 113 % of control | [5] 111 % of control | [6] 102 % of control

O=C(O)c1ccccc1C(=O)c1ccc(-c2ccccc2)cc1
inactive: [7] 110 % of control | [8] 102 % of control | [9] 100 % of control

O=c1oc2ccc(Cl)cc2c2c1OC(c1ccccc1)CN2 (stereo unspecified)
inactive: [7] 96 % of control | [8] 90 % of control | [9] 91 % of control

CCOC(=O)c1ccc(N(CCC(O)CN=[N+]=[N-])S(=O)(=O)c2ccc(C)cc2)cc1 (stereo unspecified)
inactive: dose: 50.0 mg/kg/injection, schedule: Q01DX001 (ip), vehicle: carboxymethylcellulose (CMC) 96 % of control | [10] 100 % of control | [11] 96 % of control | [12] 100 % of control

CC(=O)Nc1ccc(/C=N/NC(=O)CNC(=O)NCc2ccccc2)cc1
inactive: [1] 95 % of control | [2] 89 % of control | [3] 89 % of control

S=C(Nc1ccc(Cl)c(Cl)c1)SCc1ccccc1
inactive: dose: 75.0 mg/kg/injection, schedule: Q04DX003 (ip), vehicle: saline 101 % of control | dose: 150.0 mg/kg/injection, schedule: Q04DX003 (ip), vehicle: saline 104 % of control | dose: 300.0 mg/kg/injection, schedule: Q04DX003 (ip), vehicle: saline 101 % of control

O=C(NCCCNC(=O)Nc1ccc(C2=NCC(O)CN2)cc1)Nc1ccc(C2=NCC(O)CN2)cc1 (stereo unspecified)
inactive: dose: 30.7 mg/kg/injection, schedule: Q01DX015 (ip), vehicle: methylcellulose (MC) 104 % of control | dose: 61.5 mg/kg/injection, schedule: Q01DX015 (ip), vehicle: methylcellulose (MC) 95 % of control

c1ccc(CC2(Cc3ccccc3)SCCS2)cc1
inactive: dose: 100.0 mg/kg/injection, schedule: Q04DX003 (ip), vehicle: Klucel (hydroxypropylcellulose) (HPC) 102 % of control | dose: 200.0 mg/kg/injection, schedule: Q04DX003 (ip), vehicle: Klucel (hydroxypropylcellulose) (HPC) 91 % of control | dose: 400.0 mg/kg/injection, schedule: Q04DX003 (ip), vehicle: Klucel (hydroxypropylcellulose) (HPC) 89 % of control

CC1(C)CC(=O)CC(=C2C(=O)NC(=O)NC2=O)C1
inactive: [10] 89 % of control | dose: 100.0 mg/kg/injection, schedule: Q01DX002 (ip), vehicle: saline with Tween-80 92 % of control | dose: 100.0 mg/kg/injection, schedule: Q04DX002 (ip), vehicle: saline with Tween-80 103 % of control | [11] 92 % of control | dose: 200.0 mg/kg/injection, schedule: Q01DX002 (ip), vehicle: saline with Tween-80 98 % of control | dose: 200.0 mg/kg/injection, schedule: Q04DX002 (ip), vehicle: saline with Tween-80 111 % of control | [12] 87 % of control | dose: 400.0 mg/kg/injection, schedule: Q01DX002 (ip), vehicle: saline with Tween-80 95 % of control | dose: 400.0 mg/kg/injection, schedule: Q04DX002 (ip), vehicle: saline with Tween-80 100 % of control

Cc1nc2ncn(C3OC(CO)C(O)C3O)c2nc1C (stereo unspecified)
inactive: dose: 100.0 mg/kg/injection, schedule: Q01DX005 (ip), vehicle: saline 95 % of control | dose: 200.0 mg/kg/injection, schedule: Q01DX005 (ip), vehicle: saline 90 % of control

CCCCC1(C)CCC(=O)O1 (stereo unspecified)
inactive: dose: 66.0 mg/kg/injection, schedule: Q01DX001 (ip), vehicle: Klucel (hydroxypropylcellulose) (HPC) 101 % of control | [7] 95 % of control | dose: 150.0 mg/kg/injection, schedule: Q01DX001 (ip), vehicle: Klucel (hydroxypropylcellulose) (HPC) 96 % of control | dose: 200.0 mg/kg/injection, schedule: Q01DX001 (ip), vehicle: saline 113 % of control | dose: 400.0 mg/kg/injection, schedule: Q01DX001 (ip), vehicle: saline 91 % of control

O=C(COc1ccc(Cl)cc1)NCCc1ccccc1
inactive: dose: 100.0 mg/kg/injection, schedule: Q01DX009 (ip), vehicle: Klucel (hydroxypropylcellulose) (HPC) 97 % of control | dose: 200.0 mg/kg/injection, schedule: Q01DX009 (ip), vehicle: Klucel (hydroxypropylcellulose) (HPC) 92 % of control | dose: 400.0 mg/kg/injection, schedule: Q01DX009 (ip), vehicle: Klucel (hydroxypropylcellulose) (HPC) 98 % of control

O=C1c2ccccc2Cc2cscc21
inactive: [4] 91 % of control | [5] 91 % of control
